CC(C)(C)c1ccc(-c2nnc(-c3ccc(-c4ccccc4)cc3)o2)cc1
solubility (mole fraction)
Conditions | 273.15 K | 283.15 K | 293.15 K | 303.15 K | 313.15 K | 323.15 K | 333.15 K
in DMSO | – | – | 0.00363 | 0.00603 | 0.00886 | 0.0133 | 0.0187
in NMP | – | 0.0542 | 0.0662 | 0.0767 | 0.0954 | 0.115 | –
in THF | – | 0.0524 | 0.0589 | 0.065 | 0.0725 | 0.0817 | –
in acetonitrile | – | 0.00143 | 0.00234 | 0.00313 | 0.00464 | 0.00615 | –
in chlorobenzene | – | 0.0587 | 0.0709 | 0.0834 | 0.0952 | 0.112 | –
in dichloromethane | 0.0818 | 0.0911 | 0.104 | 0.112 | – | – | –
in ethanol | – | 0.00062 | 0.000963 | 0.00148 | 0.00222 | 0.00315 | –
in ethyl acetate | – | 0.0114 | 0.0153 | 0.0223 | 0.03 | 0.0392 | –
in isopropanol | – | 0.000711 | 0.0012 | 0.00174 | 0.00274 | 0.00324 | –
in methanol | – | 0.000412 | 0.000703 | 0.00105 | 0.00185 | 0.00281 | –
in n-hexane | – | 0.000411 | 0.000596 | 0.000996 | 0.00164 | 0.00235 | –
in toluene | – | 0.0303 | 0.04 | 0.0585 | 0.0834 | 0.109 | –
